Assay results reported in publication PMC9587032, “Mapping periplasmic binding protein oligosaccharide recognition with neutron crystallography” (Scientific Reports, 2022).

Target: T1, tmMBP (tmMBP2 isoform; maltodextrin-binding protein) (Thermotoga maritima, UniProt Q9S5Y1)
T1 construct: gene TM_1839; H/D-exchanged crystal, single chain in asymmetric unit
T1 sequence (Q9S5Y1 20-393): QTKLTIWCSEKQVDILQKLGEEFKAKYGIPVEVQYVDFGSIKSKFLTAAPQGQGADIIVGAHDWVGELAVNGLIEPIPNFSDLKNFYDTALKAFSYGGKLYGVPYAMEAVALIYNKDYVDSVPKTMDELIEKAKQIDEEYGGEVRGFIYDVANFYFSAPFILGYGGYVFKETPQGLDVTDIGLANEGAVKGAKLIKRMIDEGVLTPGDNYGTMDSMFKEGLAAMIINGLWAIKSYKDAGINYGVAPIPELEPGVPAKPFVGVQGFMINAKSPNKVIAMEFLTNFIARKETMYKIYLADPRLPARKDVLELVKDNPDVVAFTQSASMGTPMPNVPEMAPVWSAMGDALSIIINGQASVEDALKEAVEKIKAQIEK
Assay: joint neutron/X-ray crystal structure
Settings: pH 5.5 crystals, room temperature, D2O exchanged; interdomain binding site; neutron 2.10 A, X-ray 1.70 A

OC[C@H]1O[C@H](O[C@H]2[C@H](O)[C@@H](O)[C@@H](O[C@H]3[C@H](O)[C@@H](O)[C@@H](O[C@H]4[C@H](O)[C@@H](O)C(O)O[C@@H]4CO)O[C@@H]3CO)O[C@@H]2CO)[C@H](O)[C@@H](O)[C@@H]1O (stereo partly shown) [maltotetraose]
joint neutron/X-ray crystal structure: final refined atomic model for maltotetraose bound tmMBP have been deposited
